Assay results taken from US10183021B2, “sGC stimulators” (Ironwood Pharmaceuticals, Inc., priority 2013, dated 2019).

What was measured:
[1] = molecular target: T1, soluble guanylate cyclase (sGC) (Homo sapiens (Human), UniProt Q02108+Q02153); test: sGC-HEK-cGMP assay with SNP incubation, HTRF detection (Example 2B); type: cell-based; conditions: HEK293 cells, 10 μM SNP; for Emax: 100% = BAY 41-2272 at 10 μM + 100 μM SNP, read-out: HEK assay Emax - unconstrained (%); for EC50: read-out: HEK assay EC50 - unconstrained
T1 sequence (Q02153 whole entry): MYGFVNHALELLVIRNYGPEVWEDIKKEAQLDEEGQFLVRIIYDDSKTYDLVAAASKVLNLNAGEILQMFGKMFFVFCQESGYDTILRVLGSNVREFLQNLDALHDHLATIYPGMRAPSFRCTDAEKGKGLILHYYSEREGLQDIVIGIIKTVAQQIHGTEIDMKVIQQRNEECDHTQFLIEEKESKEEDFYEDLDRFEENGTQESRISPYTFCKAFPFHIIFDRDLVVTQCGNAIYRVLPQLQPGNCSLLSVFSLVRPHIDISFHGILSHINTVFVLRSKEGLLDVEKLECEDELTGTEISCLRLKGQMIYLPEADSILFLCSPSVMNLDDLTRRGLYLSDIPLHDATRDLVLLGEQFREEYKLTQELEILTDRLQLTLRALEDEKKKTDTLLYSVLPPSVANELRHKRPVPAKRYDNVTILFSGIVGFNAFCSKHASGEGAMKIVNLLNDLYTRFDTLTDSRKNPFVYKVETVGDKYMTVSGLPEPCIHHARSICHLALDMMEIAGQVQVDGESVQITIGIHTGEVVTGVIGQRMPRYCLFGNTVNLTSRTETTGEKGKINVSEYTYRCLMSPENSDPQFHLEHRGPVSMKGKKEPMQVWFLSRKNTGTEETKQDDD
T1 sequence (Q02108 whole entry): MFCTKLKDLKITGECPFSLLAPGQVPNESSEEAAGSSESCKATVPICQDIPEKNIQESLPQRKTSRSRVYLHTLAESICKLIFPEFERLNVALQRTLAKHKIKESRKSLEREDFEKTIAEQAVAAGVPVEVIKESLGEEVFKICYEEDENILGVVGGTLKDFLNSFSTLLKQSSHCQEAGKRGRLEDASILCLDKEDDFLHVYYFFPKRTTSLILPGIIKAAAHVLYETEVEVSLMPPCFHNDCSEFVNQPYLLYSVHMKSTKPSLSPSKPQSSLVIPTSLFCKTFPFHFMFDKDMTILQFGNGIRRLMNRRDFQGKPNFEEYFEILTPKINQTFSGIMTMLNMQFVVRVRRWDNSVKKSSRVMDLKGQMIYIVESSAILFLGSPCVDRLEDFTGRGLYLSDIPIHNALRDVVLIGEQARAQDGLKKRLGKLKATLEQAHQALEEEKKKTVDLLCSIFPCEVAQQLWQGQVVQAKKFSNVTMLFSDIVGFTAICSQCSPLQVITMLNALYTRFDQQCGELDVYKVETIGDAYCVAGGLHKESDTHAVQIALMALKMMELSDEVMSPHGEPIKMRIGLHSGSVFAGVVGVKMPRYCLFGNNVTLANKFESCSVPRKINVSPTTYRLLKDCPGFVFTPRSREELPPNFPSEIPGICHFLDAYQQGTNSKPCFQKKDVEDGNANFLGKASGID
Method: Human embryonic kidney cells (HEK293), endogenously expressing soluble guanylate cyclase (sGC), were used to evaluate the activity of test compounds. Compounds stimulating the sGC enzyme should cause an increase in the intracellular concentration of cGMP. HEK 293 cells were seeded in Dulbecco's Modification of Eagle's Medium supplemented with fetal bovine serum (10% final) and L-glutamine (2 mM final) in a 200 μL volume at a density of 1×10^5 cells/well in a poly-D-lysine coated 96 well flat bottom plate and grown overnight at 37° C. Medium was aspirated and cells were washed with 1× Hank's Buffered Saline Salt Solution (200 μL). Cells were then incubated for 15 minutes at 37° C. with 200 μL of a 0.5 mM 3-isobutyl-1-methylxanthine (IBMX) solution. Test article and sodium nitroprusside solutions were then added to the assay mixture (2 μL each) and the resulting mixture incubated at 37° C. for 10 minutes. After the 10 minute incubation, the assay mixture was aspirated and 0.1M HCl (200 μL) was added to the cells. The plate was incubated at 4° C. for 30 minutes in the 0.1M HCl to stop the reaction and lyse the cells. The plates were then centrifuged at 1,200 g for 5 minutes at room temperature. GMP levels were determined using a cGMP HTRF assay (Cisbio Product #62GM2PEC). For each sample, 5 uL of HEK assay supernatant was diluted 1:5 in HTRF kit assay diluent and transferred to a well of the assay plate, and the HTRF assay was performed according to the HTRF kit manufacturer's instructions. Sample calculations were performed using high and low controls, where high control was supernatant from HEK assay performed in the presence of 10 uM Bay 41-2272+100 uM SNP, and the low control was the supernatant from the HEK assay performed in the presence of vehicle. A cGMP standard solution was prepared in 0.1 M HCl and diluted in order to perform a cGMP standard curve using the HTRF assay. Using Mean Ratio data from the HTRF assay, sample date were normalized according to the equation: 100*(Sample−Low Control)/(High Control−Low Control). Data were fit to a 3-parameter log agonist dose response (Top (% EMax), Bottom, log EC50) using Graphpad (Prism Software). Data in Table 4 was obtained using this modified assay procedure. (x μM concentration for test article solution and 10 μM concentration for SNP solution; wherein x is one of the following concentrations: 30 μM, 10 μM, 3 μM, 1 μM, 0.3 μM, 0.1 μM, 0.03 μM, 0.01 μM, 0.003 μM, 0.001 μM, 0.0003 μM and 0.01 nM.

[2] = molecular target: T1, soluble guanylate cyclase (sGC); test: sGC-HEK-cGMP assay with SNP incubation, LC/MS detection (Example 2A); type: cell-based; conditions: HEK293 cells, 10 μM SNP, LC/MS detection; for Emax: 100% = BAY 41-2272 at 10 μM, read-out: HEK assay Emax - unconstrained (%)
Procedure, shortened: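 HEK293 cells with endogenous sGC were pretreated 15 min at 37 °C with 0.5 mM IBMX, then exposed 10 min at 37 °C to compound (added from 0.0001–30 μM solutions) plus SNP (from 10 μM solution). After 0.1 M HCl lysis, cGMP was quantified by LC/MS against a standard curve.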

[3] = molecular target: T1, soluble guanylate cyclase (sGC); test: sGC-HEK-cGMP assay, new protocol with DETA-NONOate, LC/MS detection (Example 2C); type: cell-based; conditions: read-out: Absolute EC50 (uM) - binned
[4] = test system: lambs with acute pulmonary hypertension; conditions: inhaled microparticles, awake lambs, U-46619-induced pulmonary hypertension; cited from earlier work
[5] = test system: Sprague-Dawley rats; test: Blood pressure change in Sprague-Dawley rats (Example 4); type: in vivo, rat; conditions: conscious male Sprague-Dawley rats, PO, 10 mg/kg
Method: Male rats (250-350 g body weight, supplied by Harlan Laboratories) were anesthetized with ketamine/xylazine and a heparinized saline fluid filled catheter implanted into the right femoral artery. The catheter was exteriorized between the scapula, capped, and the animal allowed to recover for at least 7 days post surgery prior to any compound testing. Prior to testing animals were maintained on normal diet, with free access to drinking water, under a 12 hour light-dark cycle.
On the day of experimentation, under inhaled isoflurane anesthesia, the catheter was uncapped and connected to a tether (Instech Labs) and pressure transducer (Harvard Apparatus). Blood pressure and heart rate were subsequently captured and analyzed with a dedicated data capture system (PowerLab, ADInstruments). Data sampling rates were set at 1 cycle per second. Once connected, each rat was allowed to recover from anesthesia and baseline blood pressure and heart rate levels were established in these conscious, freely-moving animals. Once baseline was established either vehicle (0.5% methylcellulose or 100% PEG400) or test article was administered orally (PO, 10 mg/kg) and the effects on blood pressure and heart rate monitored for up to 24 hours.
Data are reported as hourly averages and changes in blood pressure are calculated from subtracting individual baseline on an hourly basis.

[6] = top of curve not fitted to 100%, read-out: HEK assay EC50 - unconstrained
[7] = top of curve fitted to 100%, read-out: HEK assay EC50 - constrained

Row | Emax [1] [%] | EC50 [1] [nM] | Compound | Emax [2] [%] | EC50 [2, 6] [nM] | EC50 [3] [µM] | pulmonary vasodilation [4] | EC50 [2, 7] [nM] | Rat Mean Arterial Pressure peak change from baseline at 10 mpk [5]
1 |  |  | Nc1nc(-c2nn(Cc3ccccc3F)c3ncccc23)ncc1C1CC1 [BAY 41-2272] |  |  |  | dose dependent pulmonary vasodilation |  | 
2 | 80 to 100 | 1 to 100 | CC(C)[C@@H](CN(C)c1nc(-c2cc(-c3ccon3)n(Cc3ccccc3F)n2)ncc1F)C(=O)O [Compound I-253] | 60 to 80 | 1 to 100 |  |  |  | B (B = −20 ≤ peak change from baseline at 10 mpk ≤ −10)
3 |  |  | CC(C)C1(C(=O)O)CCN(c2nc(-c3cc(-c4ccon4)n(Cc4ccccc4F)n3)ncc2F)CC1 [Compound I-306] | 80 to 100 | 1 to 100 | < 0.1 |  |  | B (B = −20 ≤ peak change from baseline at 10 mpk ≤ −10)
4 | 80 to 100 | 500 to 1000 | COC(=O)Nc1nc(-c2cc(-c3ccon3)n(Cc3ccccc3F)n2)ncc1F [Compound I-51] |  |  |  |  | 1000 to 5000 | 
5 |  |  | O=C(O)C1(c2ccccc2)CCN(c2nc(-c3cc(-c4ccon4)n(Cc4ccccc4F)n3)ncc2F)CC1 [Compound I-186] | 80 to 100 | 1 to 100 | < 0.1 |  |  | B (B = −20 ≤ peak change from baseline at 10 mpk ≤ −10)
6 |  |  | CC(C)[C@@H](C(=O)O)N(C)c1nc(-c2cc(-c3ccon3)n(Cc3ccccc3F)n2)ncc1F [Compound I-89] | 60 to 80 | 1 to 100 | < 0.1 |  |  | C (C = peak change from baseline at 10 mpk < −20)
7 | 80 to 100 | 1 to 100 | O=C(O)[C@H]1[C@@H]2CN(c3nc(-c4cc(-c5ccon5)n(Cc5ccccc5F)n4)ncc3F)C[C@@H]21 [Compound I-271] |  |  |  |  |  | 
8 |  |  | O=C(O)CCCCN(CCc1ccccc1OCc1ccc(CCc2ccccc2)cc1)Cc1ccc(C(=O)O)cc1 [BAY 58-2667] |  |  |  | dose dependent pulmonary vasodilation |  | 
9 | 40 to 60 | 100 to 500 | N#Cc1cnc(-c2cc(-c3ccon3)n(Cc3ccccc3F)n2)nc1N1CCOCC1 [Compound I-29] |  |  |  |  |  | 
10 |  |  | CC(C)[C@@H](C(=O)NS(=O)(=O)C1CC1)N(C)c1nc(-c2cc(-c3ccon3)n(Cc3ccccc3F)n2)ncc1F [Compound I-187] | 80 to 100 | 1 to 100 | < 0.1 |  |  | A (A = −10 < peak change from baseline at 10 mpk < 0)
11 | 80 to 100 |  | Fc1ccccc1Cn1nc(-c2ncc(F)c(N3CCOCC3)n2)cc1-c1ccon1 [Compound I-3] | 60 to 80 |  |  |  |  | 
12 | 100 to 120 | 500 to 1000 | CC1(C(=O)O)CCN(c2nc(-c3nc(-c4ccon4)n(Cc4ccccc4F)n3)ncc2F)CC1 [Compound I-249] | 60 to 80 | 1000 to 5000 |  |  |  | 
13 | 80 to 100 | 100 to 500 | Fc1ccccc1Cn1nc(-c2ncc(F)c(NC3CCNCC3)n2)cc1-c1ccon1 [Compound I-36] | 40 to 60 | 1000 to 5000 |  |  |  | 
14 |  |  | OC[C@H](O)CNc1nc(-c2cc(-c3ccon3)n(Cc3ccccc3F)n2)ncc1F [Compound I-316] |  |  | < 0.1 |  |  | C (C = peak change from baseline at 10 mpk < −20)
15 |  |  | C[C@H]1CCCN(c2nc(-c3cc(-c4ccon4)n(Cc4ccccc4F)n3)ncc2F)[C@H]1c1nn[nH]n1 [Compound I-341] |  |  | < 0.1 |  |  | A (A = −10 < peak change from baseline at 10 mpk < 0)
16 | 80 to 100 | 1 to 100 | CC(C)[C@H](CN(C)c1nc(-c2cc(-c3ccon3)n(Cc3ccccc3F)n2)ncc1F)C(=O)O [Compound I-248] | 80 to 100 | 1 to 100 |  |  |  | C (C = peak change from baseline at 10 mpk < −20)
17 |  |  | Nc1nc(-c2nn(Cc3ccccc3F)c3ncccc23)nc(N)c1N1CCOCC1 [BAY 41-8543] |  |  |  | dose dependent pulmonary vasodilation |  | 

Row | Compound | Emax [1] [%] | EC50 [1] [nM] | Emax [2] [%] | EC50 [2, 6] [nM] | EC50 [3] [µM] | pulmonary vasodilation [4] | EC50 [2, 7] [nM] | Rat Mean Arterial Pressure peak change from baseline at 10 mpk [5]
18 | CC(C)C[C@H](C(=O)O)N(C)c1nc(-c2cc(-c3ccon3)n(Cc3ccccc3F)n2)ncc1F [Compound I-221] | 100 to 120 | 1000 to 5000 | 0 to 10 | > 10000 | < 0.1 |  |  | 
19 | CC(C)[C@@H](C(=O)O)N(C)c1nc(-c2nc(-c3ccon3)n(Cc3ccccc3F)n2)ncc1F [Compound I-200] | 100 to 120 | 1000 to 5000 | 80 to 100 | 5000 to 10000 | > 1 |  | 1000 to 5000 | 
20 | O=C(O)CNc1nc(-c2cc(-c3ccon3)n(Cc3ccccc3F)n2)ncc1F [Compound I-67] | 60 to 80 | 1000 to 5000 | 80 to 100 | 5000 to 10000 | > 1 |  | > 10000 | 
21 | Fc1ccccc1Cn1nc(-c2ncc(F)c(N3CCn4c(nnc4C(F)(F)F)C3)n2)cc1-c1ccon1 [Compound I-16] | 100 to 120 | 1 to 100 | 100 to 120 | 1 to 100 | < 0.1 |  |  | 
